Test results from patent US5104859A, “Continuous administration of adenosine to reduce pulmonary vascular resistance” (priority 1990, dated 1992).

Columns and labels:
central hemodynamics = assay: Per cent change of hemodynamics: adenosine, SNP and TNG induced controlled hypotension during cerebral aneurysm surgery; assay type: in vivo, human
Method: One hour before the operation the patients were premedicated orally with diazepam (10-20 mg.) Atropine (0.5 mg) and droperidol (0.1 mg. per kg.) were given intravenously before induction of anesthesia. Induction was started with thiopental (5 mg. per kg) followed by phenoperidine (1-2 mg), a synthetic opiate with pharmacodymanics resembling fentanyl but with a longer duration of action and 1/10 of its analgesic potency.
Pancuronium bromide (0.1 mg per kg) was given to facilitate endotracheal intubation. Anesthesia was maintained by supplementary doses of phenoperidine and droperidol, as required. […] Phenoperidine was supplemented regularly to prevent the blood pressure from exceeding the preanesthetic level (approx. 1 mg/30-60 min). Controlled hyperventilation was employed with a humidified gas mixture of 60% N2 O in oxygen to maintain PaCO2 values at approximately 30 mmHg (±1.5/SEM). Mannitol (1-1.5 g. per kg) was given routinely at the start of the operation (e.g., 1-2 hours prior to the controlled hypotension). The patients were operated on in the horizontal supine position.
A 1.2-mm plastic cannula was introduced into the left radial artery to monitor systemic arterial blood pressure (MABP) and collect arterial blood. A balloon-tipped, flow-directed, quadruple lumen Swan-Ganz catheter (Model 93A-831-7.5 F, VIP) was inserted percutaneously via the left basilic vein, and its correct position in the pulmonary artery was determined by pressure tracings. The catheter was used for the monitoring of mean right atrial pressure (RAP), mean pulmonary artery pressure (PAP), and mean pulmonary capillary wedge pressure (PCWP) for the determination of cardiac output and collection of mixed venous blood and for the infusion of adenosine. Another plastic cannula was introduced percutaneously, in a retrograde direction, into the right jugular bulb for the collection of blood. The correct position was verified by x-ray.
The ECG was monitored with a standard chest (V5) lead. Heart rate was determined from the R-R interval. Blood pressures were measured by transducers placed at the midthoracic level. Cardiac output (QT) was determined in triplicate according to the thermodilution technique with a cardiac output computer (Edwards Lab, model 9510). Isotonic glucose, 10 ml at 1° C., was used as a thermal indicator. The ECG, heart rate, blood pressures, and thermodilution curves were recorded on a Grass® polygraph.
The infusion was started at a rate of 0.01 mg. per kg. per minute, which was doubled at 15 second intervals until the desired MABP level of 40-50 mmHg was reached. […] Serum creatinine was determined before and on two consecutive days after operation. The standard ECG was recorded the day before and the day after operation.
Subsequent to the tests described above, a 20 mM solution of adenosine in isotonic saline was administered to 50 surgical patients employing techniques similar to those described, except that pretreatment with dipyridamole was omitted.

[1] = design: species or system human; conditions: in vivo
Method: The mean hypotensive period was 32±8 min.

blood pressure = assay: Control of hypertensive crisis during surgery; assay type: in vivo, human; conditions: about 0.1 to about 0.2 mg/kg/min
Method: Continuous infusion of adenosine can also be employed to control hypertensive crises occurring during surgery. Such crises can occur, for example, as a result of release of catecholamines during surgery on pheochromocytoma--a tumor characterized by the presence of catecholamine--which can cause pulmonary edema and death. At present, this situation is treated prophylactically by pre-administration of alpha- and beta-adrenoceptor blockers or vasodilators, but the effect is often insufficient. […] Amounts of adenosine which are effective in controlling such hypertensive crises will depend on the degree of hypertension. However, as a general rule they are about half of the amounts found useful for controlled hypotension, i.e., in the range of from about 0.1 to about 0.2 mg adenosine per kilogram of body weight per minute.

[2] = Clinical observations during and after cardiopulmonary bypass
Method: During cardiopulmonary bypass (CPB), mean arterial blood pressure (MABP) above 70 mmHg was treated with the vasodilator sodium nitroprusside (SNP), except in the final phase or rewarming. CPB was performed with SARN roller pump and a Shiley oxygenator (100A) primed with 2000 ml crystalloid solution (75 mg heparin). The perfusion rate was kept at approximately […] body surface. Moderate hypothermia (25° C.) was induced. Cardioplegia was obtained with Ringer's solution (with added potassium up to 20 mM/1). Heparin (3 mg/kg) was administered as a bolus injection before cannulation. The heparin effect was controlled by measurements of activated clotting time. (Hemocron® Int. Technidyne Corp, USA). […] At the termination of CPB, the heparin effect was antagonized with protamine (c. 1.3 mg/mg heparin). ACT was checked 10-20 min after the protamine injection. ACT values 120 sec were considered satisfactory.
Platelet count (Linson 431 A cell counter) and hematocrit were determined in arterial samples before anesthesia, after thoracotomy, during CPB at 10, 20, 40, 60, 80 and 100 min, 30 min after CPB and on the postoperative day. Platelet counts were expressed in percentage of preanesthesia levels and were corrected for hemodilution. MABP was monitored continuously via a catheter introduced in the radial artery. All patients received hypertonic mannitol (1-1.5 g/kg) during CPB and urine production was calculated as ml/.min of CPB (Table VI).
Postoperative bleeding was measured as the blood loss from the tube drainage from the end of operation until the postoperative morning.
In six cases the plasma adenosine levels were determined by high performance liquid chromatography (HPLC) (Fredholm and Sollevi, J. Physiol. (London), 313: 351-67 (1981) in arterial and in venous (venous lines to the oxygenator) blood. The adenosine metabolites inosine, hypoxanthine and uric acid were also determined by HPLC. The samples were collected as previously described (Sollevi, Acta. Physiol. Scand., 121: 165-72 (1984) at the intervals of 10, 20, 40 and 80 minutes during CPB and 20 minutes after CPB.
Statistical significance (controls v. adenosine group) was determinted with Student's t-test for unpaired data. For significance within the groups the Wilcoxon Rank Sum test was used. p […] 0.05 was regarded as significant.

[3] = Plasma half-life of adenosine; assay type: in vivo
[4] = test system: pulmonary vascular resistance; conditions: systemic vasodilator doses
[5] = Fredholm and Sollevi; cited from earlier work

Compound: Nc1ncnc2c1ncn2[C@@H]1O[C@H](CO)[C@@H](O)[C@H]1O [adenosine]
- HR, change from control (central hemodynamics; Table IV, n = 10): +9 Per Cent from Control
- MABP, change from control (central hemodynamics; Table IV, n = 10): -43 Per Cent from Control
- PAP, change from control (central hemodynamics; Table IV, n = 10): +15 Per Cent from Control
- PCWP, change from control (central hemodynamics; Table IV, n = 10): +14 Per Cent from Control
- PVR, change from control (central hemodynamics; Table IV, n = 10): -15 Per Cent from Control
- QT (cardiac output), change from control (central hemodynamics; Table IV, n = 10): +44 Per Cent from Control
- RAP, change from control (central hemodynamics; Table IV, n = 10): +6 Per Cent from Control
- SVR, change from control (central hemodynamics; Table IV, n = 10): -61 Per Cent from Control
- oxygen tissue pressures vs nitroprusside (central hemodynamics; controlled hypotension): better preserves oxygen tissue pressures
- ECG the day after the operation [1]: unchanged
- blood pressure in catecholamine-induced hypertensive crisis (blood pressure): rapidly restore blood pressure to normal
- systemic vasodilation at chosen infusion rate ([2]; 100 ug/kg/min, highest such rate in pilot cases): did not induce systemic vasodilation
- Preoperative urine production ([2]; 0.1 mg per kg per min, with range in parentheses): 4.1 (1.1-9.5) ml/min. CPB
- urine production during CPB ([2]; 500 ml/h in controls, p<0.01): 250 mL/h
- MABP during CPB vs placebo ([2]; human, in vivo): did not differ significantly
- postoperative blood loss vs control ([2]; human, in vivo): did not differ
- MABP after CPB ([2]; no intergroup difference at end of operation): slightly lower MABP
- patients with transient creatinine elevation ([2]; one control patient): two
- patients requiring vasodilator treatment ([2]; placebo: seven required nitroprusside): No patient
- transient elevation of serum creatinine above normal range ([2]; two postoperative days): 10-20%
- half-life [3]: < 10 s
- normal pulmonary vascular resistance [4]: negligible or at most, minor effect
- plasma half-life [5]: 10 to 20 s
